Laboratory results reported in ChEMBL document CHEMBL5608165, “Opportunities and perspectives of small molecular phosphodiesterase inhibitors in neurodegenerative diseases” (Eur J Med Chem, 2024).
Each block holds one compound with its values, some of them ahead of it.

How the values were obtained:
[1] = target: 3',5'-cyclic-AMP phosphodiesterase 4B (Homo sapiens, UniProt Q07343); test: Inhibition of human recombinant PDE4B1 using […] as substrate preincubated with compound for 15 mins followed by substrate addition and measured after 30 mins by spectrofluorimetric analysis
Sequence of 3',5'-cyclic-AMP phosphodiesterase 4B (Q07343 whole entry): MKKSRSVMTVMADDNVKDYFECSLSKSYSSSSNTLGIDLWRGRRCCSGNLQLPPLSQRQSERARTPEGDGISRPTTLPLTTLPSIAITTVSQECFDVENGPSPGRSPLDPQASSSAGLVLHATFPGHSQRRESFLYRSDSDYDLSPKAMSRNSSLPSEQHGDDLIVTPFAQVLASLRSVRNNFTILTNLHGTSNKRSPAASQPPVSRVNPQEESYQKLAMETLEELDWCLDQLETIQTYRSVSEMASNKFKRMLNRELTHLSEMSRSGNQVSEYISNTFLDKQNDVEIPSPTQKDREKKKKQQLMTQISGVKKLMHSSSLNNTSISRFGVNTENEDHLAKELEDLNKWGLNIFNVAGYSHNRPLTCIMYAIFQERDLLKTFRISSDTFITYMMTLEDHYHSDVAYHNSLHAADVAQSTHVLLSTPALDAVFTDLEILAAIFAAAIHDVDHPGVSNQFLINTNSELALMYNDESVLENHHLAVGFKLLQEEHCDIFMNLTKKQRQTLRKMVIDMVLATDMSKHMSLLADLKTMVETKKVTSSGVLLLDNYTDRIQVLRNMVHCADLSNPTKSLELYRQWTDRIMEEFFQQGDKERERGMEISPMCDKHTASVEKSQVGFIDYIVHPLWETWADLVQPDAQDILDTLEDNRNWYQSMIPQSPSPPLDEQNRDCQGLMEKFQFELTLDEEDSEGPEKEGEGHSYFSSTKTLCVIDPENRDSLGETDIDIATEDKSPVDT

Phosphodiesterase 4 = Phosphodiesterase 4 (Homo sapiens, UniProt P27815+Q08499+Q07343+Q08493); test: Inhibition of PDE4 (unknown origin); assay type: protein assay
Histone deacetylase 1 = Histone deacetylase 1 (Homo sapiens, UniProt Q13547); test: Inhibition of HDAC1 (unknown origin)
Sequence of Histone deacetylase 1 (Q13547 whole entry): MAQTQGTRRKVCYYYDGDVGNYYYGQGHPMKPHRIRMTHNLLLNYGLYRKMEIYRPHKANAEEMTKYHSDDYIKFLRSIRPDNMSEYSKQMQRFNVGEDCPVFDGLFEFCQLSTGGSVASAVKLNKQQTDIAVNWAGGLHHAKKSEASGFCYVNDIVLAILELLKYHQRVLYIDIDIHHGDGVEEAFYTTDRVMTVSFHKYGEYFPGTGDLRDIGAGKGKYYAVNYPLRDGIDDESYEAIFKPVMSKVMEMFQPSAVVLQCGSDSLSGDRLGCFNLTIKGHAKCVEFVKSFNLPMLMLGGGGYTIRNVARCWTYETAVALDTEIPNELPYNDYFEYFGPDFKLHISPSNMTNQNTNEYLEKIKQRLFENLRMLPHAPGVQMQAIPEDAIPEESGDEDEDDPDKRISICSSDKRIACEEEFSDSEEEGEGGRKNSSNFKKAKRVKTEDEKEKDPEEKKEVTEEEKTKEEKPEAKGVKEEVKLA

Acetylcholinesterase = Acetylcholinesterase (Homo sapiens, UniProt P22303); test: Inhibition of AChE (unknown origin) using acetylthiocholine iodide as substrate by Ellman's method
Sequence of Acetylcholinesterase (P22303 whole entry): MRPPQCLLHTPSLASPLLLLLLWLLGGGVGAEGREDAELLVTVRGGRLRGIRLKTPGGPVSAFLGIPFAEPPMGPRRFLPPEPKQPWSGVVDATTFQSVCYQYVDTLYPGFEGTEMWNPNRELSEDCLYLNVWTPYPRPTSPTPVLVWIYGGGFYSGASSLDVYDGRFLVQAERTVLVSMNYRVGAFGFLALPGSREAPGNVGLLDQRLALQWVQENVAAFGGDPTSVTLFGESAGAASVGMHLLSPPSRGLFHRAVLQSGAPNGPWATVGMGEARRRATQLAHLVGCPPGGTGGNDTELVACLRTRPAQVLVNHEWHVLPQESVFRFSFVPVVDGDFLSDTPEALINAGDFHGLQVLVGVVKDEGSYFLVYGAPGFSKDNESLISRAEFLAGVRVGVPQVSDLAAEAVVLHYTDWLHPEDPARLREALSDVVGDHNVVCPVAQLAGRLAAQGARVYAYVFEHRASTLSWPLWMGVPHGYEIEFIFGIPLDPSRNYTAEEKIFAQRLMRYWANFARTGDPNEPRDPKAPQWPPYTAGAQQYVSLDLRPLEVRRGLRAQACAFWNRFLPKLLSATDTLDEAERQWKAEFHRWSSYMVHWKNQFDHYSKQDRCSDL

[2] = target: T1, cGMP-specific 3',5'-cyclic phosphodiesterase (Homo sapiens, UniProt O76074); test: Inhibition of PDE5A (unknown origin)
[3] = target: High affinity 3',5'-cyclic-AMP phosphodiesterase 7A (Homo sapiens, UniProt Q13946); test: Inhibition of PDE7A (unknown origin)
Sequence of High affinity 3',5'-cyclic-AMP phosphodiesterase 7A (Q13946 whole entry): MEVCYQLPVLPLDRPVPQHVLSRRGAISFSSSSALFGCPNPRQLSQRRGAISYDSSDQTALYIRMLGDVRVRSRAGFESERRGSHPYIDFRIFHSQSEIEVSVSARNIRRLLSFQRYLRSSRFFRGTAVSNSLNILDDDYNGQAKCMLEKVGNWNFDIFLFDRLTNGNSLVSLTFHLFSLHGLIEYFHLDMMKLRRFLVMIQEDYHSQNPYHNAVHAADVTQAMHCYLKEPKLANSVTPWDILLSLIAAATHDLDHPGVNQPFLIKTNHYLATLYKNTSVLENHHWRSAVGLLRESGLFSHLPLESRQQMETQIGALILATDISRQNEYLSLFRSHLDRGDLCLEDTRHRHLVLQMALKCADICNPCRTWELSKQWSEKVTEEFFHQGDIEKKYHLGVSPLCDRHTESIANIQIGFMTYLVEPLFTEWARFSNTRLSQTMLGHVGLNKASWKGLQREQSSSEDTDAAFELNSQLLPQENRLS

[4] = target: 3',5'-cyclic-AMP phosphodiesterase 7B (Homo sapiens, UniProt Q9NP56); test: Inhibition of PDE7B (unknown origin)
[5] = target: T2, cAMP and cAMP-inhibited cGMP 3',5'-cyclic phosphodiesterase 10A (Homo sapiens, UniProt Q9Y233); test: Inhibition of his-tagged recombinant human PDE10A catalytic domain extracted from Escherichia coli BL21(DE3) using [3H]-cAMP as substrate incubated for 10 mins by SPA assay
[6] = target: T3, High affinity cGMP-specific 3',5'-cyclic phosphodiesterase 9A (Homo sapiens, UniProt O76083); test: Inhibition of PDE9A (unknown origin)
T3 sequence (O76083 whole entry): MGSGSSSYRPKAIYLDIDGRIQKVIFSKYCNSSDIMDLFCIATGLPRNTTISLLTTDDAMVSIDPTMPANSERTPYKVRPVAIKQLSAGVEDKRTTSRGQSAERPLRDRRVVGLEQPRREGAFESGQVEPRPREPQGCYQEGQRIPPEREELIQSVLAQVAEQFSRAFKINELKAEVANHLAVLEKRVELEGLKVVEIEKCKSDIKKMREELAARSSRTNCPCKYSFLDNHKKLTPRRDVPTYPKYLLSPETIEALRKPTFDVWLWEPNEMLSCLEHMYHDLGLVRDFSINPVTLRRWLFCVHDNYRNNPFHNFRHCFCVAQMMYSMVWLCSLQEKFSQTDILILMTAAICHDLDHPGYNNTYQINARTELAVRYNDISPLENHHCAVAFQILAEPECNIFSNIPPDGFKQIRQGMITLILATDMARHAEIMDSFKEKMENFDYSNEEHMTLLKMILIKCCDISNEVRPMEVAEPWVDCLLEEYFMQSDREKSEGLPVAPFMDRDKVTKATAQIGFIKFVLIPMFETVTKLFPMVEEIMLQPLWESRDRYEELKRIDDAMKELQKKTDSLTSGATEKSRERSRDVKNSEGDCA

[7] = Inhibition of PDE1 (unknown origin); parameters: species or system Homo sapiens
[8] = target: T2, cAMP and cAMP-inhibited cGMP 3',5'-cyclic phosphodiesterase 10A; test: Inhibition of PDE10A (unknown origin)
[9] = target: cGMP-dependent 3',5'-cyclic phosphodiesterase (Homo sapiens, UniProt O00408); test: Inhibition of PDE2A (unknown origin) using 3H-cGMP as substrate
[10] = target: Dual specificity calcium/calmodulin-dependent 3',5'-cyclic nucleotide phosphodiesterase 1A (Homo sapiens, UniProt P54750); test: Inhibition of human recombinant GST-tagged PDE1A
[11] = target: Dual specificity calcium/calmodulin-dependent 3',5'-cyclic nucleotide phosphodiesterase 1B (Homo sapiens, UniProt Q01064); test: Inhibition of PDE1B (unknown origin)
Sequence of Dual specificity calcium/calmodulin-dependent 3',5'-cyclic nucleotide phosphodiesterase 1B (Q01064 whole entry): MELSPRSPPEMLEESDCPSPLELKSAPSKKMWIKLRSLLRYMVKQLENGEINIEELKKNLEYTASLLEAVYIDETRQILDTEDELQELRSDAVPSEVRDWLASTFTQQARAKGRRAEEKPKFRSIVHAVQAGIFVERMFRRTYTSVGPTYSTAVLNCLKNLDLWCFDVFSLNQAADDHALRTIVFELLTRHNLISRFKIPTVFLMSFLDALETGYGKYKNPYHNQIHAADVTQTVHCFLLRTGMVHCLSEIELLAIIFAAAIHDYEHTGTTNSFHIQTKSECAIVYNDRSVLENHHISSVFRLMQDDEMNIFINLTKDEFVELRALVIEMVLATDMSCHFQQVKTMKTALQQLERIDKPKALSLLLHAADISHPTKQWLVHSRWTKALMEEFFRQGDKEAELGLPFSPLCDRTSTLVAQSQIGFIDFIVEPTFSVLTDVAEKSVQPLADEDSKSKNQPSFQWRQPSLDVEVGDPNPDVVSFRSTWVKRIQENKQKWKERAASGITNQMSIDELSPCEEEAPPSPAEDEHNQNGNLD

[12] = target: Dual specificity calcium/calmodulin-dependent 3',5'-cyclic nucleotide phosphodiesterase 1C (Homo sapiens, UniProt Q14123); test: Inhibition of PDE1C (unknown origin)
Sequence of Dual specificity calcium/calmodulin-dependent 3',5'-cyclic nucleotide phosphodiesterase 1C (Q14123 whole entry): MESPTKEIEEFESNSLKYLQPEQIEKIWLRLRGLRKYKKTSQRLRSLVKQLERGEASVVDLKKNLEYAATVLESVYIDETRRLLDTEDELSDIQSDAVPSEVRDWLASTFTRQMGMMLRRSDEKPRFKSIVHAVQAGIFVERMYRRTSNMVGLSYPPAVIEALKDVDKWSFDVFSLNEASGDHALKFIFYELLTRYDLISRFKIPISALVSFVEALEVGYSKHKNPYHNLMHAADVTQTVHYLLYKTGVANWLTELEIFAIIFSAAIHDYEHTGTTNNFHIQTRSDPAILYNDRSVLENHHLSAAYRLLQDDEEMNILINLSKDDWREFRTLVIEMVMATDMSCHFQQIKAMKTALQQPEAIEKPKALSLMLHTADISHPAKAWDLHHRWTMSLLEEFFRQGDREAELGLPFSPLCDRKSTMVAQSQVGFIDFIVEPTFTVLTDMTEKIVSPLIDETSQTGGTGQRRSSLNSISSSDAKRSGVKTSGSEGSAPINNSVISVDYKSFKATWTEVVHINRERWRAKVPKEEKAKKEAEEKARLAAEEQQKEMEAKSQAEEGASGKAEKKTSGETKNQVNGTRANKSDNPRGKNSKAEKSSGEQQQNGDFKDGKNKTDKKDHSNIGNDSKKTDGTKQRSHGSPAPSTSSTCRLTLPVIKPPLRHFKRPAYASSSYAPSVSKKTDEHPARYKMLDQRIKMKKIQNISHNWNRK

[13] = target: Glycogen synthase kinase-3 alpha (Homo sapiens, UniProt P49840); test: Inhibition of GSK3alpha (unknown origin)
Sequence of Glycogen synthase kinase-3 alpha (P49840 whole entry): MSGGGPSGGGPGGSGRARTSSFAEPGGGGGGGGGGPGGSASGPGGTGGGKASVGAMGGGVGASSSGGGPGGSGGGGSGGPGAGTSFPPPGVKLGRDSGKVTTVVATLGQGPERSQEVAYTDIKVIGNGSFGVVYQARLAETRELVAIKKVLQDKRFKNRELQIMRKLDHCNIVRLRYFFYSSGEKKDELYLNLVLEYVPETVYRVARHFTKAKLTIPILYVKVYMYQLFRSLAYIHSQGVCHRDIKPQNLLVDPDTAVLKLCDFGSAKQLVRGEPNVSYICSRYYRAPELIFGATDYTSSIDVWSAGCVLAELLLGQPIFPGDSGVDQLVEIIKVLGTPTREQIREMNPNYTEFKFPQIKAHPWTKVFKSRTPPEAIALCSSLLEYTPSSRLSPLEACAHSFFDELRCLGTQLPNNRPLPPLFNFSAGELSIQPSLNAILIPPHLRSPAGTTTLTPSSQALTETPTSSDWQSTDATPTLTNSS

[14] = target: T3, High affinity cGMP-specific 3',5'-cyclic phosphodiesterase 9A; test: Binding affinity to PDE9A (unknown origin) using [3H]cAMP as substrate assessed as inhibition constant incubated for 1 hr by […]
[15] = target: cGMP-inhibited 3',5'-cyclic phosphodiesterase 3B (Homo sapiens, UniProt Q13370); test: Inhibition of human recombinant PDE3B using FAM-cyclic-3',5'-AMP as substrate incubated for 1 hrs by fluorescence polarization based assay
[16] = target: cGMP-inhibited 3',5'-cyclic phosphodiesterase 3A (Homo sapiens, UniProt Q14432); test: Inhibition of PDE3A (unknown origin) using FAM-cAMP as substrate incubated for 45 mins by TR-FRET analysis
[17] = target: T1, cGMP-specific 3',5'-cyclic phosphodiesterase; test: Inhibition of PDE5A1 (unknown origin) using [3H]-cGMP substrate incubated for 15 mins by liquid scintillation counting method

- IC50 [1]: 95 nM
- IC50 (Phosphodiesterase 4): 30 nM
SMILES: O=C(Nc1ccccc1Cl)c1ccc(OC(F)F)c(OC2CCCC2)c1

- IC50 [1]: 144 nM
- IC50 (Phosphodiesterase 4): 90 nM
SMILES: O=C(Nc1ccccc1Cl)c1ccc(OC(F)F)c(OCC2CC2)c1

- IC50 (Histone deacetylase 1): 208 nM
SMILES: CCCc1nc(C)c2c(=O)[nH]c(-c3cc(CC4CC(C(=O)NO)C4)ccc3OCC)nn12 (stereo unspecified)

SMILES: O=C1[C@H]2Cc3c([nH]c4ccccc34)[C@@H](c3ccc4c(c3)OCO4)N2C(=O)CN1CCC1CCN(Cc2ccccc2)CC1
- IC50 (Acetylcholinesterase): 150 nM
- IC50 [2]: 0.15 nM

- IC50 [1]: 10.6 nM
SMILES: C=CCn1cc(-c2nc3ccccc3nc2Cl)c2cc(OC)ccc21

- IC50 [2]: 36 nM
SMILES: CC(C)CCn1c2c(c3c(O)cc(O)cc31)CCn1c-2nc2ccccc2c1=O

- IC50 [3]: 150 nM
- IC50 [4]: 12100 nM
SMILES: Cc1ccc([N+](=O)[O-])cc1S(=O)(=O)N(C)C

- IC50 (Histone deacetylase 1): 180 nM
SMILES: CCCc1nn(C)c2c(=O)[nH]c(-c3cc(Cc4ccc(C(=O)Nc5ccccc5N)cc4)ccc3OCC)nc12

SMILES: O=C1[C@@H]2Cc3c([nH]c4ccccc34)[C@@H](c3ccc4c(c3)OCO4)N2C(=O)CN1CCC1CCN(Cc2ccccc2)CC1
- IC50 (Acetylcholinesterase): 1630 nM
- IC50 [2]: 1.63 nM

- IC50 [5]: 9.5 nM
SMILES: O=c1c(/C=C/c2nc3cc(Cl)ccc3n2-c2ccccc2)coc2ccc(F)cc12

SMILES: COc1ccc([C@@H]2c3[nH]c4ccccc4c3C[C@H]3C(=O)N(CCC4CCN(Cc5ccccc5)CC4)CC(=O)N23)cc1
- IC50 (Acetylcholinesterase): 3200 nM
- IC50 [2]: 3.2 nM

- IC50 [6]: 58 nM
SMILES: C[C@@H](NC(=O)/C=C/c1cccc(O)c1)c1nc2c(cnn2C2CCCC2)c(=O)[nH]1

- IC50 [2]: 33.4 nM
SMILES: CCc1cc(C#N)cc2c(NCc3ccc(OC)c(Cl)c3)c(COCCF)cnc12

- IC50 [7]: 40 nM
SMILES: CC(C)(C)n1ncc2c(=O)n(Cc3cccc(F)c3)c(NCc3ccc(F)cn3)nc21

- IC50 [8]: 0.64 nM
SMILES: COc1cc2ncnc(NCCc3c[nH]c4ccc(O)cc34)c2cc1OC

- IC50 [6]: 107 nM
SMILES: C[C@@H]1CC(Cc2ccc(C(=O)NO)cc2)C[C@H]1c1nc2c(cnn2C2CCCC2)c(=O)[nH]1 (stereo partly specified)

- IC50 [6]: 38000 nM
SMILES: CCCCn1c(=O)n(CC)c(=O)c2[nH]c(-c3cccc(C(C)C)c3)cc21

- IC50 [9]: 570 nM
SMILES: CC(c1cccc2ccccc12)n1cnc2c(=O)[nH]c(Cc3ccccc3)nc21 (stereo unspecified)

- IC50 [3]: 1150 nM
SMILES: COc1ccc(/C(CSc2nc3ccccc3c(=O)n2-c2ccccc2)=N\N)cc1

- IC50 [10]: 57.5 nM
- IC50 [11]: 13.8 nM
- IC50 [12]: 46.8 nM
SMILES: COc1ccc2c(N(C)[C@]3(C)CCO[C@H]3C)ncnc2c1OC

- IC50 [2]: 8 nM
SMILES: COc1ccc(CNc2c(COCCF)cnc3c(C4CC4)cc(C#N)cc23)cc1Cl

- IC50 [11]: 43.9 nM
- IC50 [12]: 431 nM
SMILES: Cn1c(OC[C@H]2CC[C@H](C(F)(F)F)CC2)nn2c(C3CCOCC3)ncc2c1=O

- IC50 [6]: 5.3 nM
SMILES: CC(C)=CCc1c2c(c3occ(-c4ccc(OS(C)(=O)=O)c(OS(C)(=O)=O)c4)c(=O)c3c1O)CCC(C)(C)O2

- IC50 [9]: 1.9 nM
SMILES: O=C(NCCc1ccccc1)c1cnn2c(=O)cc(-c3ccccc3)[nH]c12

- IC50 [3]: 1590 nM
- IC50 [13]: 880 nM
SMILES: c1ccc(-c2n/c(=N/CCN3CCOCC3)sn2-c2ccccc2)cc1

- Ki [14]: 1.53 nM
SMILES: CCCn1c(=O)c2[nH]c(-c3cccc(C(C)C)c3)cc2n(-c2ccc3c(c2)CNC3C(=O)OC)c1=O (stereo unspecified)

- IC50 [11]: 7.5 nM
- IC50 [12]: 86 nM
SMILES: COC[C@H]1CC[C@H](Oc2nn3c(C4CCOCC4)ncc3c(=O)n2C)CC1

- IC50 [6]: 1.1 nM
SMILES: O=C1NC(=O)/C(=C/c2ccc(OCCNc3nc4c(cnn4C4CCCC4)c(=O)[nH]3)c(F)c2)S1

- IC50 [15]: 50 nM
- IC50 [16]: 27 nM
SMILES: O=C1CCc2cc(OCCCCc3nnnn3C3CCCCC3)ccc2N1 [CILOSTAZOL]

- IC50 [17]: 11 nM
SMILES: COc1cc2c(cc1OC)C(=O)C(CC1CCN(Cc3ccccc3)CC1)C2 (stereo unspecified) [DONEPEZIL]

- IC50 [7]: 50 nM
SMILES: CN1C(=O)c2c(nn(Cc3ccc(-c4cccc(F)n4)cc3)c2Nc2ccccc2)N2C1=N[C@@H]1CCC[C@@H]12 [LENRISPODUN]

SMILES: Cn1c(=O)c2[nH]cnc2n(C)c1=O [THEOPHYLLINE ANHYDROUS]
- IC50 [7]: 280 nM

- IC50 [7]: 30000 nM
SMILES: CCOC(=O)C1=C[C@]2(CC)CCCN3CCc4c(n1c1ccccc41)[C@@H]32 [VINPOCETINE]
